In patent publication US20160374944A1, “COMPOSITIONS AND METHODS FOR TREATING AND PREVENTING CANCER BY TARGETING AND INHIBITING CANCER STEM CELLS” (priority 2011, published 2016):

Key:
Prostate CSCs [1] = experiment: colony formation in soft agar; type: cell-based, human; settings: 21 days; embelin 0-6 μM, rottlerin 0-2 μM
Experimental: (§1) In particular, embelin is shown to inhibit spheroid and colony formation, and induce caspase-3 and apoptosis. (A) Prostate CSCs were grown in CSC medium and treated with embelin (0-6 μM) for 7 days to obtain primary spheroids. At the end of incubation period, spheroids were collected, reseeded and treated with embelin for another week to obtain secondary spheroids. Cell viability in spheroids was measured by trypan blue assay at the end of 7 and 14 days. […] (B) Prostate CSCs were seeded in soft agar and treated with embelin (0-6 μM) for 21 days. […] (C and D) Activation of caspase-3 and induction of apoptosis is shown.
as §1, with “(A)” for “In particular, embelin is shown to inhibit spheroid and colony formation, and induce caspase-3 and apoptosis. (A)”, “rottlerin (0-2” for “embelin (0-6”, “rottlerin” for “embelin”, “apoptosis.” for “apoptosis is shown.”

[2] = tested on: TCF/LEF-1 reporter activity in prostate CSCs; experiment: TCF/LEF1-responsive dual luciferase reporter; type: cell-based, human; settings: rottlerin 0-2 μM, 24 h, dual luciferase assay
Experimental: (§2) FIG. 17 graphs showing the regulation of Shh, Notch and TGFβ pathways by rottlerin. […] The expression of Patched-1, Patched-2, SMO, Gli1 and Gli2 was measured by qRT-PCR. […] Data were normalized with GAPDH. (D) Prostate CSCs were treated with rottlerin (0-1 μM) for 24 h. The expression of Notch1, Notch3 and JAG1 was measured by qRT-PCR. (E) TCF/LEF-1, Gli and Notch reporter activities. Prostate CSCs were transduced with a mixture of TCF/LEF1-, Gli-, or Notch-responsive firefly luciferase construct and Renilla luciferase construct (40:1) along with lipofectamine. After transduction, medium was changed and CSCs were treated with rottlerin (0-2 μM) for 24 h. […] (F) Immunofluorescence analysis of Gli1 and Gli2 expression in prostate CSCs. Green=Gli1 or Gli2; red=nucleus.

Prostate CSCs [3] = experiment: gene expression by qRT-PCR; type: cell-based, human; settings: 24 h
Experimental: FIG. 15 is a graph showing that rottlerin inhibits the expression of survivin, XIAP, Bcl-2 and Bcl-XL in prostate CSCs. Prostate CSCs were treated with rottlerin (0-2 μM) for 24 h, and the expression of survivin, XIAP, Bcl-2 and Bcl-XL was measured by the q-RT-PCR. […] Data were normalized with GAPDH.
FIG. 16 is a graph showing the regulation by rottlerin of cMyc, Nanog, Oct3/4 and Sox-2 in prostate CSCs. Prostate CSCs were treated with rottlerin (0-1 μM) for 24 h. The expression of cMyc, Nanog, Oct3/4 and Sox-2 was measured by qRT-PCR. […] Data were normalized with GAPDH.
as §2

[4] = tested on: Gli1 and Gli2 in prostate CSCs; experiment: immunofluorescence analysis of Gli1 and Gli2 expression; type: cell-based, human; settings: measured by IFC
Experimental: as §2

pancreatic cancer = settings: KrasG12D mice

With `CC(=O)c1c(O)c(C)c(O)c(Cc2c(O)c3c(c(C(=O)/C=C/c4ccccc4)c2O)OC(C)(C)C=C3)c1O` [rottlerin] the “colony formation in soft agar” value (Prostate CSCs [1]) was “inhibited”, the “TCF/LEF1 responsive reporter activity” value [2] was “inhibited the TCF/LEF1, Gli1 and Notch responsive reporter activities in a dose-dependent manner” and the “expression of Bcl-2” value (Prostate CSCs [3]; normalized with GAPDH) was “inhibited the expression”. For the same molecule, the “expression of Bcl-XL” value (Prostate CSCs [3]; normalized with GAPDH) was “inhibited the expression”, the “expression of Gli1” value (Prostate CSCs [3]; normalized with GAPDH) was “inhibited the expression” and the “expression of Gli2” value (Prostate CSCs [3]; normalized with GAPDH) was “inhibited the expression”. For the same molecule, the “expression of Nanog” value (Prostate CSCs [3]; normalized with GAPDH) was “inhibited the expression”, the “expression of Oct3/4” value (Prostate CSCs [3]; normalized with GAPDH) was “inhibited the expression” and the “expression of Patched-1” value (Prostate CSCs [3]; normalized with GAPDH) was “inhibited the expression”. For the same molecule, the “expression of Patched-2” value (Prostate CSCs [3]; normalized with GAPDH) was “inhibited the expression”, the “expression of SMO” value (Prostate CSCs [3]; normalized with GAPDH) was “inhibited the expression” and the “expression of Sox-2” value (Prostate CSCs [3]; normalized with GAPDH) was “inhibited the expression”. For the same molecule, the “expression of XIAP” value (Prostate CSCs [3]; normalized with GAPDH) was “inhibited the expression”, the “expression of cMyc” value (Prostate CSCs [3]; normalized with GAPDH) was “inhibited the expression” and the expression of survivin (Prostate CSCs [3]; normalized with GAPDH) was “inhibited the expression”. The “expression of JAG1” value (Prostate CSCs [3]; rottlerin 0-1 μM) was “inhibited the expression”, the “expression of Notch1” value (Prostate CSCs [3]; rottlerin 0-1 μM) was “inhibited the expression” and the “expression of Notch3” value (Prostate CSCs [3]; rottlerin 0-1 μM) was “inhibited the expression”. For the same molecule, the “nuclear expression of constitutively active Gli1” value [4] was “inhibited the nuclear expression” and the “nuclear expression of constitutively active Gli2” value [4] was “inhibited the nuclear expression”.
In the case of `C[S+]([O-])CCCCN=C=S` (stereo not drawn) [sulforaphane], the pancreatic cancer progression (pancreatic cancer) is reported as “inhibits the growth of pancreatic cancer progression”.
